Reference: patent US20250290916A1 (Antibody Analytics Limited, priority 2022, published 2025)
Entries after “also recorded” stand apart in the source; their conditions may differ.

Key:
CD4+ and CD8+ T cells = experiment: Proliferation and IFNγ production of PBMC T cells stimulated with CD3/CD28 Dynabeads; format: cell-based, human; details: PBMCs from two donors, concentration series, 96 hrs; for IFNγ production: ELISA; for proliferation of CD4+ T cells / proliferation of CD8+ T cells: proliferation dye
Description: One of the main considerations for application of the CIP system in immunology assays using primary human immune cells, is the effect that the small molecules (e,g. IAA) may have on cell viability and normal function. For example, one of the main limitations of one of the rapamycin-CIP systems is the high immunoregulatory effect of rapamycin on immune cells that limits its applicability in immunology assays. The inventors assessed the effect of IAA in the function of immune cells. PBMCs from two donors were stimulated with Human T-Activator CD3/CD28 targeting Dynabeads to stimulate T cell activation and proliferation, in the presence of a increasing concentration series of IAA. T cell proliferation and IFNγ production was analysed 96 hrs post stimulation to determine any negative effects on T cells. The concentration series of IAA was selected to reflect the concentration expected to be used in assays. […] Proliferation of CD4+ (A) and CD8+ (B) T cells was assessed by flow cytometry using a proliferation dye. The results are shown in FIG. 3, IFNγ production was assessed by ELISA (panel C), n=3, graphs report […]+SD.
For example one of the main limitation of one of the rapamycin-CIP system is the high immunoregulatory effect of rapamycin on immune cells that limits its applicability in immunology assays.
Peripheral Blood Mononuclear Cells (PBMCs) from two donors were labelled with eBioscience™ Cell Proliferation Dye eFluor™ 670 (ThermoFisher #65-0840-90). […] The cells were incubated for 96 hrs in a humidified incubator at 37° C./6% CO2 at which point proliferation of CD4+ and CD8+ T cells was assessed by flow cytometry. In parallel, supernatants were collected and the levels of IFNγ was analysed by ELISA (Human IFN-gamma DuoSet ELISA, R&D systems #DY285B).

IAA CIP system [1] = experiment: CD19 expression in CHO-K1 IAA activator 10× i-Scel CD19 reporter cells; format: cell-based
Description: To test the system in a therapeutically relevant target, a construct expressing CD19 under the control of 10× i-Scel binding sites was introduced into the IAA activator cassette containing CHO-K1 cells and clones isolated. As the purpose of the system is to provide titratable expression of a given receptor (usually a tumour associated antigen) within a biologically relevant range, the CD19 expression was quantified using a Quantibrite bead fluorescence quantification kit which contains multiple bead populations each conjugated with set numbers of fluorophore molecules (PE in this case) per bead. Assuming the fluorophore conjugation to the detection antibody is at a 1:1 ratio (which was confirmed by the manufacture) and antibody binding to the receptor of interest (CD19) occurs at a 1:1 ratio, the number of CD19 receptors per cell can be calculated. By means of comparison, the CD19 expression level of the CD19 positive cells found in peripheral blood mononuclear cells (PBMCs), e.g. B cells, and Ramos cells were calculated in the same experiment.
(§1) Following this incubation, the cells were analysed for CD19 expression by flow cytometry.
CHO-K1 cells containing the IAA activator cassette and a 10× i-Scel CD19 reporter construct were seeded overnight in 96 well plates. […] CD19 expression was assess by flow cytometry and quantified for receptor number per cell. […]

IAA CIP system [2] = experiment: EGFP reporter expression in CHO-K1 cells with IAA activator cassette and i-Scel EGFP reporter; format: cell-based; details: 24 hours
Description: (§2) The levels of expression correlate with the number of i-Scel sites, with negligible induction observed at 1× i-Scel and the highest induction over background observed with the 10× i-Scel sites reporter. […] However, the inventors predict, that the inclusion of higher numbers of i-Scel binding sites in the reporter/TAOI cassette, would result in higher levels of induction of the reporter/TAOI.
(§3) Therefore, the 5× and 10× i-Scel binding site pools for HEK293 and CHO-K1 cells were single cell dilution cloned, and colonies picked from each cell pool and then analysed for induction of expression following IAA treatment. […] The HEK293 and CHO-K1 cells containing the IAA activator cassette and the 10× and 5× i-Scel reporter constructs were seeded overnight in 96 well plates. IAA was added at the indicated concentration and the cells were incubated for a further 24 hours. EGFP expression was detected by flow cytometry analysis.
(§4) The HEK293 and CHO-K1 cells containing the IAA activator cassette and the 10× i-Scel reporter construct were seeded overnight in 96 well plates. IAA was added at the indicated concentrations and the cells were incubated for a further 24 hours. EGFP expression was detected by flow cytometry analysis.
(§5) HEK293 and CHO-K1 cells containing the IAA activator cassette and the EGFP reporter constructs were seeded in 6 well plates. Following overnight incubation, the media was replaced with fresh media containing the indicated concentrations of IAA and the cells incubated for a further 24 hours. EGFP expression was detected using a NovoCyte flow cytometer (ACEA).

ABA CIP system [3] = experiment: tagBFP and CD19 reporter expression in CHO-K1 ABA activator cells; format: cell-based
Procedure: CD19 expression was detected by flow cytometry analysis and the number of CD19 receptors per cell was quantified using a Quantibrite PE bead fluorescence quantification kit (BD Biosciences). The CD19 receptors per cell for Ramos, Raji and B cells isolated from PBMCs are shown by way of comparison.
as §1
CD19 expression was detected by anti-CD19 staining (Biolegend #302254) and flow cytometry analysis. The number of CD19 receptors per cell was quantified using a Quantibrite PE bead fluorescence quantification kit (BD Biosciences #340495).

ABA CIP system [4] = experiment: ABA-inducible CD22 expression in CHO-K1 cells containing both IAA and ABA CIP systems; format: cell-based; details: CHO-K1 IAA CD19 / ABA CD22 cells, IAA concentration series
Procedure: (§6) CD22 and CD19 expression was measured by flow cytometry and mean fluorescence intensity corresponding to CD22 and CD19 expression was plotted.

CHO-K1 cells = experiment: Cytotoxicity on CHO-K1 cells, eFluor780 fixable viability dye, flow cytometry; format: cell-based; details: increasing concentrations, 24 hours
Procedure: (§7) Before IAA was used as an expression inducer for the transduced cell lines, it was assessed for any cytotoxic effects on CHO-K1 and HEK293 cells. Cell viability in both HEK293 and CHO-K1 cells was measured by flow cytometry 24 hours post addition of IAA over the concentration range indicated.
(§8) HEK293 and CHO-K1 cells were treated with the indicated concentrations of IAA for 24 hours before being stained with eFluor780 fixable viability dye and analysed by flow cytometry.

IAA CIP system [5] = experiment: EGFP reporter expression in HEK293 cells with IAA activator cassette and i-Scel EGFP reporter; format: cell-based; details: 24 hours
Description: as §2, §3, §4, §5

HEK293 cells = experiment: Cytotoxicity on HEK293 cells, eFluor780 fixable viability dye, flow cytometry; format: cell-based; details: increasing concentrations, 24 hours
Procedure: as §7, §8

CD19 = target: T1, CD19 (Homo sapiens, UniProt P15391); experiment: T cell engager assay, Jurkat NFAT luciferase reporter cells with CHO-K1 IAA or ABA activator CD19 reporter cells; format: cell-based
T1 construct: expressed in transfected cells
T1 sequence (P15391 20-556): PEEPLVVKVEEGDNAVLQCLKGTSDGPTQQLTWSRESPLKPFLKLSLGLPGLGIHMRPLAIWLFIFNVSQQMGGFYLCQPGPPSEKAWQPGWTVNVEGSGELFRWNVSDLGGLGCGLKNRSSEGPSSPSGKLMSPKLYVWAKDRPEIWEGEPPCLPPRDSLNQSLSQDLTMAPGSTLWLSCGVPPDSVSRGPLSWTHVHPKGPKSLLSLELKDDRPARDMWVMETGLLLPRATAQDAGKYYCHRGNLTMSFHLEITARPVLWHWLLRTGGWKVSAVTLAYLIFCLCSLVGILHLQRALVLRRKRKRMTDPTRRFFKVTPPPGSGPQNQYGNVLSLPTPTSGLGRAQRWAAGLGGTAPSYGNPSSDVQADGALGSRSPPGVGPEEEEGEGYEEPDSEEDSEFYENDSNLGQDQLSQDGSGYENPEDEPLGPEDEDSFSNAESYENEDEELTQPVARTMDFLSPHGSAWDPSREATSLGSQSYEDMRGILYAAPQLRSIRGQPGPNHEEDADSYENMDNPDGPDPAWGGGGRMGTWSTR
Procedure: This represents a typical assay set up for measuring the effect of a bispecific against cells expressing its target antigen.
NFAT activation was determined by luminescence after 24 hours (48 Hours from assay start) and plotted against CD19 expression quantified by staining with PE anti-CD19 and plotted on a curve generated using Quantibrite PE receptor quantification kit. n=3, graphs report mean±SD.

IAA CIP system [6] = experiment: IAA-inducible CD19 expression in CHO-K1 cells containing both IAA and ABA CIP systems; format: cell-based; details: CHO-K1 IAA CD19 / ABA CD22 cells, ABA concentration series
Procedure: as §6

ABA CIP system [7] = experiment: tagBFP and CD19 reporter expression in HEK293 ABA activator cells; format: cell-based; details: 1000 μM ABA, 24 hours
[8] = CHO-K1 ABA activator cells, 1000 μM ABA, 24 hours

`O=C(O)Cc1c[nH]c2ccccc12` [IAA, indole-3-acetic acid] was tested, and the IFNγ production (CD4+ and CD8+ T cells) was “little or no effect”, the “proliferation of CD4+ T cells” value (CD4+ and CD8+ T cells) was “little or no effect” and the “proliferation of CD8+ T cells” value (CD4+ and CD8+ T cells) was “little or no effect”. For the same compound, the “dose dependence of CD19 expression (receptors per cell)” value (IAA CIP system [1]; CHO-K1 IAA activator 10× i-Scel CD19 clone, IAA concentration range, 72 hours) was “a dose dependent range of CD19 expression has been achieved”, the “dose dependence of EGFP expression” value (IAA CIP system [2]; CHO-K1 10× i-Scel EGFP clone) was “dose-dependent induction of EGFP expression” and the “induction of EGFP expression” value (IAA CIP system [2]; CHO-K1 stable pools, 1×, 5×, 10× i-Scel sites) was “induction of expression of EGFP can clearly be seen”. The “additional induction of EGFP at 1000 μM compared to 500 μM” value (IAA CIP system [2]; CHO-K1 stable pools) was “no evidence of additional induction”, the “CD19 expression from the ABA CIP system (cross-talk)” value (ABA CIP system [3]; CHO-K1 ABA activator CD19 reporter cells, 1000 μM IAA, 24 hours) was “does not induce expression” and the “CD22 expression from the ABA system upon IAA (cross-talk in a single cell line)” value (ABA CIP system [4]) was “does not induce expression; also recorded: without IAA inducing ABA-activated CD22 expression”. The “cell viability (percentage of cells which do not take up the dye)” value (CHO-K1 cells) was “no decrease in cell viability was observed”, the “dose dependence of EGFP expression” value (IAA CIP system [5]; HEK293 10× i-Scel EGFP clone) was “dose-dependent induction of EGFP expression” and the “induction of EGFP expression” value (IAA CIP system [5]; HEK293 stable pools, 1×, 5×, 10× i-Scel sites) was “induction of expression of EGFP can clearly be seen”. The “additional induction of EGFP at 1000 μM compared to 500 μM” value (IAA CIP system [5]; HEK293 stable pools) was “no evidence of additional induction” and the “cell viability (percentage of cells which do not take up the dye)” value (HEK293 cells) was “no decrease in cell viability was observed”.

In the case of “Blincyto: CD19×CD3 targeting bispecific T cell engager”, the “NFAT luciferase signal against number of CD19 receptors” value (CD19; Blincyto 10 ng/mL and 25 ng/mL, luminescence after 24 hours) is reported as “concurrent increase in luciferase signal” and the “NFAT luciferase signal at the higher concentration compared to the lower” value (CD19; Blincyto 25 ng/mL versus 10 ng/mL) is reported as “higher but remains IAA and ABA dose dependent”.

S-(+)-abscisic acid [ABA] was tested, and the IFNγ production (CD4+ and CD8+ T cells) was “minimal effects”, the “proliferation of CD4+ T cells” value (CD4+ and CD8+ T cells) was “minimal effects” and the “proliferation of CD8+ T cells” value (CD4+ and CD8+ T cells) was “minimal effects”. The “CD19 expression from the IAA system (cross-talk)” value (IAA CIP system [1]; CHO-K1 IAA activator CD19 reporter cells, 1000 μM ABA, 24 hours) was “does not induce expression”, the “dose dependence of CD19 expression (receptors per cell)” value (ABA CIP system [3]; CHO-K1 ABA activator 9×Gal4 UAS CD19 clone, ABA concentration range, 48 hours) was “dose dependent induction of CD19 expression” and the CD19 expression (ABA CIP system [3]; [8]) was “expression of both tagBFP and CD19 was obtained”. For the same compound, the tagBFP expression (ABA CIP system [3]; [8]) was “expression of both tagBFP and CD19 was obtained”, the “CD19 expression from the IAA CIP system upon ABA (cross-talk in a single cell line)” value (IAA CIP system [6]) was “does not induce expression; also recorded: without ABA inducing IAA-activated CD 19 expression” and the CD19 expression (ABA CIP system [7]) was “expression of both tagBFP and CD19 was obtained”. For the same compound, the tagBFP expression (ABA CIP system [7]) was “expression of both tagBFP and CD19 was obtained”.
